Experiments:
[1] = tested on: LS174T; assay: MTT in vitro antiproliferative assay, LS174T; format: cell-based, human; conditions: for TGI / GI50: 48 h drug exposure; for IC50 / GI50: Homo sapiens; for IC50: 48 h, 50% cell death
Source text: (§1) The in vitro antiproliferative activities of the novel triazolo[3,4-b]thiadiazole derivatives were estimated in ten well-established human cancer cell lines including three ovarian (SKOV-3, UWB 1.289, and UWB 1.289+BRCA1), five colorectal adenocarcinoma (DLD-1, HT-29, LS174T, LoVo, and SW403), and two prostate cancer cell lines (PC-3 and DU-145). All cancer cell lines were obtained from the American Type Culture Collection (ATCC) and cultivated in different culture media according to the instructions. The required growth mediums were supplemented with 10% fetal bovine serum and 1% streptomycin/penicillin. All cancer cell lines were cultured as monolayers and maintained at 37 °C, 5% CO2 in humidified air.
(§2) Stock solutions of all tested compounds were prepared by dissolving the required amount of substances in the DMSO solvent to reach the desired concentration of 15 mM.
(§3) To evaluate the in vitro antiproliferative activity of the triazolo[3,4-b]thiadiazole derivatives, 3-(4,5-dimethylthiazol-2-yl)-2,5-diphenyltetrazolium bromide (MTT) assay was assessed. According to the protocol, cells were firstly seeded into a 96-well plate at a density of 8 × 10^3 cells and grown for 24 h at 37 °C, 5% CO2 in humidified air. Subsequently, cells were treated with the tested compounds in a specific range of drug concentrations (1–100 μΜ). Following 48 h of drug exposure, the culture media were discarded and replaced with 100 μL of fresh medium. Afterwards, 50 μL of dissolved MTT in phosphate-buffered saline (PBS) solution (5 mg/mL) were added in each well and cells were incubated for 3 h at 37 °C, 5% CO2 in humidified air. Incubation time was followed by MTT discard and the addition of 100 μL of DMSO solvent so that the formazan crystals could be dissolved. The absorbance of the converted dye was immediately measured at a wavelength of 540 nm on an ELISA reader (VersaMax Microplate Reader, Orleans, CA, USA).
(§4) The in vitro anticancer effect of a tested compound on cell viability was determined by three dose–response parameters termed GI50, TGI, and IC50. More specifically, the GI50 value indicates the required concentration of the compound that impels 50% cell growth inhibition, the TGI value corresponds to the concentration that induces 100% cell growth inhibition, and the IC50 value is the concentration that causes 50% cell death. The two parameters GI50 and TGI represent the cytostatic activity, whereas IC50 reflects the cytotoxic effect of a drug. To estimate the three parameters, nine absorbance measurements were required including control 24 h (Ct24), control 72 h (Ct72), and the mean of cell survival in all seven drug concentrations (Tt72). The percentage growth inhibition was calculated according to National Cancer Institute’s (NCI) protocol: [(Tt72x) − (Ct24)/(Ct72) − (Ct24)] × 100 for concentrations for which Tt72x > Ct24 and [(Tt72x) − (Ct24)/Ct24] × 100 for concentrations for which Tt72x < Ct24. GI50 was calculated from [(Tt72x) − (Ct24)/(Ct72) − (Ct24)] × 100 = 50, TGI was calculated from [(Tt72x) − (Ct24)/(Ct72) − (Ct24)] × 100 = 0, and IC50 was calculated from [(Tt72x) − (Ct24)/Ct24] × 100 = 50. All the experiments were carried out in triplicate.

[2] = tested on: HT-29; assay: MTT in vitro antiproliferative assay, HT-29; format: cell-based, human; conditions: HT-29, MTT; for IC50 / GI50: Homo sapiens; for IC50: 48 h, 50% cell death, read-out: IC50; for GI50: read-out: GI50
Source text: as §1, §2, §3, §4

[3] = tested on: DU-145; assay: MTT in vitro antiproliferative assay, DU-145; format: cell-based, human; conditions: DU-145, MTT; for TGI / GI50: 48 h drug exposure; for IC50 / GI50: Homo sapiens; for IC50: 48 h, 50% cell death, read-out: IC50; for GI50: read-out: GI50
Source text: as §1, §2, §3, §4

[4] = tested on: UWB1.289+BRCA1; assay: MTT in vitro antiproliferative assay, UWB1.289+BRCA1; format: cell-based, human; conditions: UWB1.289+BRCA1, MTT; for IC50 / GI50: Homo sapiens; for IC50: 48 h, 50% cell death; for GI50 / TGI: 48 h drug exposure
Source text: as §1, §2, §3, §4

[5] = tested on: HT-29 human tumor (colorectal adenocarcinoma) xenograft; assay: In vivo antitumor activity, HT-29 xenograft; conditions: HT-29 xenograft in CB17 SCID mice; for volume size of the tumors: eighteen days after single i.p. dose at LD10; for tumor inhibition (TI): single i.p. dose at LD10
Method: CB17 severe combined immunodeficient (SCID) male and female mice were used for toxicity and antitumor activity studies. Mice were obtained from National Center for Scientific Research (NCSR) Demokritos, Institute of Biology, Athens, Greece. CB17 SCID mice were fed water and an irradiated standard rodent diet ad libitum and housed under specific pathogen-free conditions. For ethical reasons, the weight and tumor volumes of the animals were measured twice a week during the experiment. In case of cachexia, suffering, or increase in the tumor volume up to 2000 mm^3, the animals were sacrificed by cervical disruption. The protocol was approved by the ethical committee of the National and Kapodistrian University of Athens and was conducted according to the European Directive 86/609/EEC guidelines for the care and use of laboratory animals. The study received a permit from the Veterinary Directorate of the Prefecture of Athens (approval #: 2023/2017) according to the Greek legislation conforming to the 2010/53/ EU Council Directive.
HT-29 (human colorectal adenocarcinoma) tumor volume was developed by subcutaneously implanting 2 × 10^6 HT-29 cells/mouse in the right hind flank. In vivo antitumor activity was investigated in 22 mice, of which 7 mice served as the common control group and the 15 remaining mice were divided into three groups of 5 mice. Therefore, each derivative was administered in a group of five mice. The animals were randomized into test groups on day 28 when their tumor volumes were in the 150–200 mm^3 range. After randomization, the mice were treated intraperitoneally (day 1) with the tested compounds (KA25, KA26, and KA39) as a single dose LD10. The control group received saline buffer (0.2 mL).
The tumor volumes were measured using an analogue caliper twice a week starting on the first day of treatment. To determine the volume (mm^3) of each tumor in an animal, the following formula was used: (D × d^2/2), where D and d refer to the larger and smaller perpendicular dimensions collected at each measurement, respectively. The diameters were determined from two orthogonal measurements on each tumor. The mean tumor volume was determined by average all tumor volumes in each group. The weekly mean tumor area change was determined and tumor inhibition (TI) was calculated by the formula: TI (%) = [1 − (TWT − TWZ)/[(TWC − TWZ)] × 100, where TWT is determined as the tumor area (mm^3) in treated animals at the time of evaluation, TWZ is determined as the tumor area (mm^3) at the time of initiation of treatment (zero time), and TWC is determined as the tumor volume (mm^3) in untreated animals (controls) at the time of evaluation. The animals were sacrificed when the tumor volume reached 2000 mm^3 (endpoint).

[6] = tested on: SW403; assay: MTT in vitro antiproliferative assay, SW403; format: cell-based, human; conditions: for TGI: 48 h drug exposure; for IC50 / GI50: Homo sapiens; for IC50: SW-403, 48 h, 50% cell death; for GI50: SW-403, 48 h drug exposure
Source text: as §1, §2, §3, §4

| Compound | TGI [1] [μΜ] | IC50 [1] [µM] | GI50 [1] [µM] | IC50 [2] [µM] | GI50 ([2]; 48 h drug exposure) [µM] | TGI [3] [μΜ] | IC50 [3] [µM] | GI50 [3] [µM] | IC50 [4] [µM] | GI50 [4] [µM] | TGI [4] [μΜ] | volume size of the tumors [5] [mm^3] | tumor inhibition (TI) [5] [%] | TGI [6] [μΜ] | IC50 [6] [µM] | GI50 [6] [µM] | TGI ([2]; 48 h drug exposure) [μΜ] |
| --- | --- | --- | --- | --- | --- | --- | --- | --- | --- | --- | --- | --- | --- | --- | --- | --- | --- |
| COc1cc(Cc2nnc3sc(C=Cc4ccc(Cl)cc4)nn23)c(S(=O)(=O)N(C)C)cc1OC [KA26] | >100 | > 100 | 8 ± 1.5 | > 100 | 2 ± 0.76 | 70 ± 1.3 | > 100 | 7 ± 1 | > 100 | 42 ± 0.5 | 65 ± 0.7 | 528.5 ± 167.7 | 62.4 | >100 | > 100 | 11 ± 0.8 |  |
| COc1cc(Cc2nnc3sc(-c4cc([N+](=O)[O-])ccc4[N+](=O)[O-])nn23)c(S(=O)(=O)N(C)C)cc1OC [KA39] | 17 ± 1.3 | 21.5 ± 1.5 | 12 ± 1.5 | 19.5 ± 0.9 | 11.5 ± 0.8 | 8 ± 0.4 | 10.3 ± 1.8 | 5.8 ± 0.2 | 94 ± 2.3 | 6 ± 0.5 | 11 ± 0.7 | 489.17 ± 81.5 | 67.6 | 7.9 ± 0.7 | 10 ± 0.76 | 5.2 ± 0.2 | 15.9 ± 0.55 |
| COc1cc(Cc2nnc3sc(C=Cc4ccc(F)cc4)nn23)c(S(=O)(=O)N(C)C)cc1OC [KA25] | 100 ± 0.1 | > 100 | 9.3 ± 2 | > 100 | 1 ± 0.3 | 13.2 ± 0.5 | 27 ± 0.3 | 12.8 ± 1.3 | 38 ± 1.1 | 4 ± 0.5 | 13 ± 0.8 | 521.6 ± 101.6 | 62.1 | >100 | > 100 | 4.8 ± 0.8 |  |

— publication PMC8066331, “Anticancer Activity of Triazolo-Thiadiazole Derivatives and Inhibition of AKT1 and AKT2 Activation” (Pharmaceutics, 2021)
